Measured values as given in ChEMBL document CHEMBL1201862, “PubChem BioAssay data set” (2004).
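All cell lines were grown in 96-well plates and treated with compound for 48 hours. Here, GI50 denotes the concentration required for 50% inhibition of growth.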 The source made the active and inactive calls. Rule as the data show it: active = GI50 up to about 1.1 µM and inactive = higher.

Key:
Assay in all cases: DTP human tumour cell line panel, 48 h
A549 = tested on: A549
COLO 205 = tested on: COLO 205
HOP-92 = tested on: HOP-92
HT-29 = tested on: HT-29
IGROV-1 = tested on: IGROV-1
M14 = tested on: M14
RXF 393 = tested on: RXF 393
SF-539 = tested on: SF-539
SK-MEL-2 = tested on: SK-MEL-2
SK-OV-3 = tested on: SK-OV-3
SN12C = tested on: SN12C
SNB-75 = tested on: SNB-75
SR = tested on: SR
UO-31 = tested on: UO-31
HL-60 = tested on: HL-60
Malme-3M = tested on: Malme-3M

| Compound | GI50 (A549) | GI50 (COLO 205) | GI50 (HOP-92) | GI50 (HT-29) | GI50 (IGROV-1) | GI50 (M14) | GI50 (RXF 393) | GI50 (SF-539) | GI50 (SK-MEL-2) | GI50 (SK-OV-3) | GI50 (SN12C) | GI50 (SNB-75) | GI50 (SR) | GI50 (UO-31) | GI50 (HL-60) | GI50 (Malme-3M) |
| --- | --- | --- | --- | --- | --- | --- | --- | --- | --- | --- | --- | --- | --- | --- | --- | --- |
| O=c1c2cccnc2ncn1CCCN1CCCC1 | > 100 µM (inactive) | 97.3 µM (inactive) | > 100 µM (inactive) | > 100 µM (inactive) | > 100 µM (inactive) | > 100 µM (inactive) | > 100 µM (inactive) | > 100 µM (inactive) | > 100 µM (inactive) | > 100 µM (inactive) | > 100 µM (inactive) | > 100 µM (inactive) | > 100 µM (inactive) | > 100 µM (inactive) |  |  |
| O=C(OCN1C(=O)C2C3C=CC(C2C1=O)C1C2C(=O)N(COC(=O)C4CCCN4)C(=O)C2C31)C1CCCN1 (stereo not given) | 62.5 µM (inactive) | 59.8 µM (inactive) | > 100 µM (inactive) | 67 µM (inactive) | > 91 µM (inactive) | 71.6 µM (inactive) | > 76.6 µM (inactive) | 47.8 µM (inactive) | > 31.6 µM (inactive) | > 100 µM (inactive) | > 72.3 µM (inactive) | > 82.6 µM (inactive) | < 0.01 µM (active) | > 100 µM (inactive) | 22.1 µM (inactive) | > 100 µM (inactive) |
| CNCC(=O)Nc1ccc2c(c1)C(=O)c1ccc(NC(=O)CNC)cc1C2=O | 11.2 µM (inactive) | 2.37 µM (inactive) | 1.78 µM (inactive) | 4.42 µM (inactive) | 16.6 µM (inactive) | 2.55 µM (inactive) | 7.31 µM (inactive) | 3.1 µM (inactive) | 3.66 µM (inactive) | 1.62 µM (inactive) | 3.1 µM (inactive) | 13.6 µM (inactive) | 1.96 µM (inactive) | 11.8 µM (inactive) |  | 3.27 µM (inactive) |
| C=CC1=C(C)c2cc3[nH]c(cc4nc(cc5[nH]c(cc1n2)c(C)c5CCC(=O)N(CC)CC)C(CCC(=O)N(CC)CC)=C4C)c(C)c3C=C | > 100 µM (inactive) |  | 6.04 µM (inactive) | > 100 µM (inactive) | > 100 µM (inactive) | > 100 µM (inactive) | 75.9 µM (inactive) | > 100 µM (inactive) | > 100 µM (inactive) | > 100 µM (inactive) | > 100 µM (inactive) | 29.4 µM (inactive) | > 100 µM (inactive) | > 100 µM (inactive) | > 100 µM (inactive) | > 100 µM (inactive) |
| Cc1ccc(-c2cc(-c3ccco3)c(C#N)c(=O)n2C2OC(OC(=O)c3ccccc3)C(OC(=O)c3ccccc3)C2OC(=O)c2ccccc2)cc1 (stereo not given) | > 100 µM (inactive) | > 10 µM (inactive) | 24.7 µM (inactive) | > 100 µM (inactive) | 42.8 µM (inactive) | 64.4 µM (inactive) | 24.9 µM (inactive) | > 100 µM (inactive) | > 100 µM (inactive) | > 100 µM (inactive) | > 100 µM (inactive) | > 100 µM (inactive) | > 100 µM (inactive) | > 100 µM (inactive) |  | > 100 µM (inactive) |
| O=C1OCC(C(=O)c2cccc(O)c2)C1=O (stereo not given) | > 100 µM (inactive) | > 100 µM (inactive) | > 100 µM (inactive) | > 100 µM (inactive) | > 100 µM (inactive) | > 100 µM (inactive) | > 100 µM (inactive) | > 100 µM (inactive) |  | > 100 µM (inactive) | > 100 µM (inactive) | > 100 µM (inactive) |  | > 100 µM (inactive) |  | > 100 µM (inactive) |
| CCC1(N=[N+]=[N-])C(=O)c2ccccc2N(C)C1=O (stereo not given) | > 100 µM (inactive) | > 100 µM (inactive) | > 100 µM (inactive) | > 100 µM (inactive) | > 100 µM (inactive) | > 100 µM (inactive) |  | > 100 µM (inactive) | > 100 µM (inactive) | > 100 µM (inactive) | > 100 µM (inactive) | > 100 µM (inactive) | > 100 µM (inactive) | > 100 µM (inactive) | > 100 µM (inactive) | > 100 µM (inactive) |
| O=C1NC(=O)C(C(=O)C(=O)Nc2ccc(Cl)cc2Cl)C(=O)N1 | > 100 µM (inactive) | > 100 µM (inactive) | 36.8 µM (inactive) |  | > 100 µM (inactive) | > 100 µM (inactive) |  | > 10 µM (inactive) | > 100 µM (inactive) | > 100 µM (inactive) |  |  |  | > 100 µM (inactive) | > 100 µM (inactive) | > 100 µM (inactive) |
| CCc1cccc(C)c1NC(=O)CC(=O)NNC(N)=S | > 100 µM (inactive) | > 100 µM (inactive) | > 100 µM (inactive) | > 100 µM (inactive) |  | > 100 µM (inactive) | > 100 µM (inactive) |  |  | > 100 µM (inactive) | > 100 µM (inactive) | > 100 µM (inactive) |  | > 100 µM (inactive) | > 100 µM (inactive) | > 100 µM (inactive) |
| O=S(=O)(O)C(O)/C=C/c1ccccc1 (stereo not given) | > 100 µM (inactive) | > 100 µM (inactive) |  | > 100 µM (inactive) | > 100 µM (inactive) | > 100 µM (inactive) | > 100 µM (inactive) |  | > 100 µM (inactive) | > 100 µM (inactive) | > 100 µM (inactive) | > 100 µM (inactive) | 26.6 µM (inactive) | > 100 µM (inactive) | > 100 µM (inactive) | > 100 µM (inactive) |
